Like-named read-outs stand apart in the source and are kept apart here.
Key:
[1] = target: T1, 5-HT2A receptor (Homo sapiens, UniProt P28223); test: cell-based; assay type: cell-based; set-up: expressed in transfected cells; host or cells: HEK293, stably transfected; settings: for Emax: HEK293, agonist, Ca2+ flux, HEK293, max dose, read-out: 5-HT2A % Act @ Max Dose
Summary of the method: (§1)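 FLIPR Tetra fluorescence read-out of calcium flux after compound addition. Receptor-expressing stable lines were used (HEK293 for 2A/2B; CHO with Gα15 for 1A), dye-loaded with Fluo-4 Direct and 2.5 mM final probenecid, 50 min at 37 °C.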

[2] = in vitro; assay type: in vitro ADME, rat
Excerpt: RLM Stability Pooled RLM from male Sprague-Dawley rats (Xenotech R1000) were used.

[3] = in vitro; assay type: in vitro ADME, mouse
Excerpt: MLM Stability Pooled MLM from male CD-1 mice (BIOIVT M00501) were used.

[4] = in vitro; assay type: in vitro ADME, human
[5] = target: T2, 5-HT2B receptor (Homo sapiens, UniProt P41595); test: cell-based; assay type: cell-based; settings: for Emax: HEK293, agonist, Ca2+ flux, HEK293, max dose, read-out: 5-HT2B % Act @ Max Dose; for selectivity for 5-HT2A over 5-HT2B: functional, compared to closest N-methyl counterparts Int8, Int11, Int17
T2 construct: expressed in transfected cells; host or cells: HEK293, stably transfected
Summary of the method: as §1

[6] = target: T3, 5-HT1A receptor (Homo sapiens, UniProt P08908); test: cell-based; settings: CHO, agonist, Ca2+ flux, CHO cells with Gα15, max dose; read-out: 5-HT1A % Act @ Max Dose
T3 construct: expressed in transfected cells; host or cells: CHO cells, stably transfected
T3 sequence (P08908 1-422): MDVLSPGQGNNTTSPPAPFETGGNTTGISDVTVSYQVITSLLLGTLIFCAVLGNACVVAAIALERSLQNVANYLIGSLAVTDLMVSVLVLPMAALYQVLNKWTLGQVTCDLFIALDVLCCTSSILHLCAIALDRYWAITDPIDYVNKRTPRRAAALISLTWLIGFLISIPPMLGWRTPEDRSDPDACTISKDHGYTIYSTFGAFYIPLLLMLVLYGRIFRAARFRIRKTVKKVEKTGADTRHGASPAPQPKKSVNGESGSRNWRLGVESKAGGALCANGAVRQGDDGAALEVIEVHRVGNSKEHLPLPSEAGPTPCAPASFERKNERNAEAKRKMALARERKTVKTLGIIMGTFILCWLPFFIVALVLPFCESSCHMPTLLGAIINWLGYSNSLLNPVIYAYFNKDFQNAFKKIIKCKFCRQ
Summary of the method: as §1

[7] = target: T1, 5-HT2A receptor; test: cell-based; assay type: cell-based; settings: beta-arrestin recruitment; for Emax: max dose, read-out: 5-HT2A Arrestin % Act @ Max Dose
Summary of the method: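 Agonist activity expressed as percent of maximal control ligand signal after vehicle subtraction, from chemiluminescence (RLU). Cells carry ProLink-tagged 5-HT2A plus β-arrestin fused to β-gal deletion mutant; ligand-driven arrestin binding restores β-galactosidase activity (PathHunter). Cells pre-incubated at 37° C.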

[8] = target: T4, 5-HT1B receptor (Homo sapiens, UniProt P28222); test: cAMP accumulation functional assay at 5-HT1B; assay type: cell-based; settings: for Emax: agonist, cAMP accumulation, max dose, read-out: 5-HT1B % Act @ Max Dose; for selectivity for 5-HT2A over 5-HT1B: functional, compared to the N-methyl prototype LSD
T4 construct: expressed in transfected cells
Summary of the method: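 Stably transfected human 5-HT1B cells were incubated 60 min at room temperature, after which detection reagent was applied for another 60 min at RT. The read-out was cAMP accumulation, used as a measure of agonist activity.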

[9] = RLM (male Sprague-Dawley) 0.50 mg/mL, NADPH 1 mM, 1 μM compound, pH 7.4, 37° C., 60 min
[10] = MLM (male CD-1) 0.50 mg/mL, NADPH 1 mM, 1 μM compound, pH 7.4, 37° C., 60 min
[11] = HLM 0.50 mg/mL, NADPH 1 mM, 1 μM compound, pH 7.4, 37° C., 60 min

T2 sequence (P41595 whole entry): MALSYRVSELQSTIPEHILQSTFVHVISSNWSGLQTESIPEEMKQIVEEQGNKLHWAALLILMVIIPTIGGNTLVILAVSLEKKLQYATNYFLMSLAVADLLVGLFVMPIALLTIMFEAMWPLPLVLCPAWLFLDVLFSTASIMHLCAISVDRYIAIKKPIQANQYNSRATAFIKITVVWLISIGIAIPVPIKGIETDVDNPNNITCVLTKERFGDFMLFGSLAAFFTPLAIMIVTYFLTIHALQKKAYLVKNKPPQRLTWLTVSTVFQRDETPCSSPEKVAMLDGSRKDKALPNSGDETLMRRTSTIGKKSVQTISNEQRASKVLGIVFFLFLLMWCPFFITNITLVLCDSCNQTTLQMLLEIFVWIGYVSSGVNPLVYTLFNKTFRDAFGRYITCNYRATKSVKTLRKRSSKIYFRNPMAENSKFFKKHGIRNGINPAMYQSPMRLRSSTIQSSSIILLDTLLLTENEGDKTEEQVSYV
T4 sequence (P28222 whole entry): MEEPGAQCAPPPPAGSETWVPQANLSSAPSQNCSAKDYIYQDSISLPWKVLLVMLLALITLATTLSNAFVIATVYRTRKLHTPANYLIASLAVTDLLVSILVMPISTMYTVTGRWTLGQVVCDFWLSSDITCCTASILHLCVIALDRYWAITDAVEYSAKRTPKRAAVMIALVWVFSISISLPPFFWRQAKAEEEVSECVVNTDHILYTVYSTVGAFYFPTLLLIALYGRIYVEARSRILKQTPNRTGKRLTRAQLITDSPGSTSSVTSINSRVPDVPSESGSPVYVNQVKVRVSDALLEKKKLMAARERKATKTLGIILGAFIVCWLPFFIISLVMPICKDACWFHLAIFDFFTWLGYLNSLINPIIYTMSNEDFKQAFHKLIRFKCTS
T1 sequence (P28223 whole entry): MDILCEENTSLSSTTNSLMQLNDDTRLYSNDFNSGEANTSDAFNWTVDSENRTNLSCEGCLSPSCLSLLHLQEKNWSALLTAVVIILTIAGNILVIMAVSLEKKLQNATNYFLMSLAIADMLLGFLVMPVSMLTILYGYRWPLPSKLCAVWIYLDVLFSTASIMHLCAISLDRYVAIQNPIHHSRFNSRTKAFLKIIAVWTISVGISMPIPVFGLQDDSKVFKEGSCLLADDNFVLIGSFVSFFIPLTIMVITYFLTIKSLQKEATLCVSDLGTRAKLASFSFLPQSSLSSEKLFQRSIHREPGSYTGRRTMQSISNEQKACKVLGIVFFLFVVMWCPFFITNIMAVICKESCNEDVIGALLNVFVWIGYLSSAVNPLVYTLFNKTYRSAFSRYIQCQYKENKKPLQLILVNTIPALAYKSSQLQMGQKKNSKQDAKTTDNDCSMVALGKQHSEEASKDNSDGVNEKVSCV

Compound: CCCN1C[C@H](C(=O)N2[C@@H](C)C[C@@H]2C)C=C2c3cccc4[nH]cc(c34)C[C@H]21 [Compound 4, ((2S,4S)-2,4-dimethylazetidin-1-yl)((6aR,9R)-7-propyl-4,6,6a,7,8,9-hexahydroindolo[4,3-fg]quinolin-9-yl)methanone]
- Emax [1]: 97.6%
- stability in RLM [2]: much lower stability (higher clearance)
- half-life (t1/2) [2, 9]: 12.8 min
- stability in MLM [3]: much lower stability (higher clearance)
- half-life (t1/2) [3, 10]: 0.8 min
- stability in HLM [4]: much lower stability (higher clearance)
- half-life (t1/2) [4, 11]: 10.6 min
- Emax [5]: 87.5%
- selectivity for 5-HT2A over 5-HT2B [5]: more selective for 5-HT2A over 5-HT2B
- Emax [6]: 123%
- Emax ([7]; agonist): 117%
- 5-HT2A arrestin agonist class [7]: full agonists
- Emax [8]: 96%
- selectivity for 5-HT2A over 5-HT1B [8]: greater selectivity for 5-HT2A over 5-HT1B

Compound: CCCN1C[C@H](C(=O)N[C@H](C)CC)C=C2c3cccc4[nH]cc(c34)C[C@H]21 [Compound 3, (6aR,9R)—N—((R)-sec-butyl)-7-propyl-4,6,6a,7,8,9-hexahydroindolo[4,3-fg]quinoline-9-carboxamide]
- Emax [1]: 103%
- selectivity for 5-HT2A over adrenergic and dopamine receptors ([1]; versus Alpha1A, Alpha2A, D1, D2): exceptional selectivity
- stability in RLM [2]: much lower stability (higher clearance)
- half-life (t1/2) [2, 9]: 4.4 min
- stability in MLM [3]: much lower stability (higher clearance)
- half-life (t1/2) [3, 10]: 1.6 min
- stability in HLM [4]: much lower stability (higher clearance)
- half-life (t1/2) [4, 11]: 4.2 min
- Emax [5]: 94.1%
- selectivity for 5-HT2A over 5-HT2B [5]: more selective for 5-HT2A over 5-HT2B
- Emax [6]: 108%
- Emax ([7]; agonist): 110%
- 5-HT2A arrestin agonist class [7]: full agonists
- Emax [8]: 98.7%
- selectivity for 5-HT2A over 5-HT1B [8]: greater selectivity for 5-HT2A over 5-HT1B

Compound: CCCN1C[C@H](C(=O)N(CC)CC)C=C2c3cccc4[nH]cc(c34)C[C@H]21 [Compound 1, (6aR,9R)—N,N-diethyl-7-propyl-4,6,6a,7,8,9-hexahydroindolo[4,3-fg]quinoline-9-carboxamide]
- Emax [1]: 97%
- stability in RLM [2]: much lower stability (higher clearance)
- half-life (t1/2) [2, 9]: 16.2 min
- stability in MLM [3]: much lower stability (higher clearance)
- half-life (t1/2) [3, 10]: 2.3 min
- stability in HLM [4]: much lower stability (higher clearance)
- half-life (t1/2) [4, 11]: 15.1 min
- Emax [5]: 104%
- Emax [6]: 95.6%
- Emax ([7]; agonist): 129%
- 5-HT2A arrestin agonist class [7]: full agonists
- Emax [8]: 96.6%

Compound: CCN(CC)C(=O)[C@@H]1C=C2c3cccc4[nH]cc(c34)C[C@H]2N(CCCF)C1 [Compound 2, (6aR,9R)—N,N-diethyl-7-(3-fluoropropyl)-4,6,6a,7,8,9-hexahydroindolo[4,3-fg]quinoline-9-carboxamide]
- Emax [1]: 97.8%
- stability in RLM [2]: much lower stability (higher clearance)
- half-life (t1/2) [2, 9]: 11.972 min
- stability in MLM [3]: much lower stability (higher clearance)
- half-life (t1/2) [3, 10]: 2.666 min
- stability in HLM [4]: much lower stability (higher clearance)
- half-life (t1/2) [4, 11]: 19.061 min
- Emax [5]: 101%
- Emax [6]: 92.4%
- Emax ([7]; agonist): 115%
- 5-HT2A arrestin agonist class [7]: full agonists
- Emax [8]: 90%
- selectivity for 5-HT2A over 5-HT1B [8]: greater selectivity for 5-HT2A over 5-HT1B

Compound: CCN(CC)C(=O)[C@@H]1C=C2c3cccc4[nH]cc(c34)C[C@H]2N(Cc2ccc(OC)cc2)C1 [Compound 19, (6aR,9R)—N,N-diethyl-7-(4-methoxybenzyl)-4,6,6a,7,8,9-hexahydroindolo[4,3-fg]quinoline-9-carboxamide]
- Emax [1]: 70.5%
- Intrinsic clearance (Clint) [2, 9]: 139.0 µL/min/mg
- half-life (t1/2) [2, 9]: 10.0 min
- Intrinsic clearance (Clint) [3, 10]: 192.7 µL/min/mg
- half-life (t1/2) [3, 10]: 7.2 min
- Intrinsic clearance (Clint) [4, 11]: 82.7 µL/min/mg
- half-life (t1/2) [4, 11]: 16.8 min
- Emax [5]: 2.44%
- Emax [6]: -0.65%
- EC50 ([7]; agonist, PathHunter, read-out: 5-HT2A Arrestin EC50): 13.5 nM
- Emax ([7]; agonist): 42.3%
- Emax [8]: 71.1%
